Experimental data from patent US20220008542A1, “ANTI-PROTOZOAL COMPOUNDS AND USES THEREOF” (AUBURN UNIVERSITY, priority 2017, published 2022).
Read-outs that look alike come from different tables or passages of the source.

How the values were obtained:
T. foetus trophozoites [1] = assay: Example 1: T. foetus trophozoites in culture tubes, surviving organisms counted by hemocytometer, re-culture at 12 hours; assay type: cell-based, Tritrichomonas foetus; settings: for inhibition of parasite growth: PO 75 mg mL^-1, OX 50 mg mL^-1, compound alone; for reduction in motile organisms: after 2 hours of culture, compound alone; for motile organisms after re-culture: re-culture at 12 hours, examination at 24 hours
Protocol: (§1) Experiments were performed in vitro using pure cultures of T. foetus trophozoites with the addition of i) an antiprotozoal compound alone or ii) a veterinary formulation comprising an antiprotozoal compound and a polymer. Samples were evaluated at predetermined time points using Neubauer hemocytometers (C-Chip® NanoEnTek Inc., Pleasanton, Calif.) to determine the number of viable organisms and the induction of the pseudocyst form. Cultures were tested for reversibility to the motile trophozoite form or replication of organisms.
(§2) The CDTf3 cloned strain of T. foetus was utilized for the instant examples. The parasites were cultivated in trypticase-yeast extract-maltose (TYM) Diamond's medium (DM) and supplemented with 10% heat-inactivated fetal bovine serum (Atlanta Biologics, Norcross, Ga.) at 37° C. for 24-48 hours until adequate numbers of trichomonads were present to perform the required number of replications. Following culture, T. foetus organisms were washed and re-suspended in 1 mL of sterile phosphate buffered saline (PBS) and then inoculated into 15 mL conical tubes (BD Falcon, Franklin Lakes, N.J.) or tissue culture wells (Sarstedt, Inc., Newton, N.C.) containing DM.
Trophozoites (3.75×10^5 mL^−1) were washed in PBS (VWR, Radnor, Pa.) and inoculated into 10 mL of fresh DM. At time 0, each of the following treatment groups was added to culture tubes: Group 1) control: 0.5 mL DM; Group 2) 0.5 mL pluronic lecithin organogel (PLO; Pluronic F127); Group 3) 75 mg ponazuril (PO) (0.5 mL); Group 4) 50 mg oxibendazole (OX) (0.5 mL); Group 5) 37.5 mg PO (0.25 mL)+0.25 mL PLO; and Group 6) 25 mg OX (0.25 mL)+0.25 mL PLO.
PLO (Pluronic F127 Letco Medical, Decatur, Ala.) was combined with OX (Anthelcide EQ® Zoetis, Florham Park, N.J.) or PO (Marquis® Merial, Duluth, Ga.) paste formulations by shear force, syringe-to-syringe-blending using two luer-lock syringes and a rapid fill connector (Baxter, Inglewood, Calif.). Each treatment was applied to conical culture tubes in 5 replicates. Following growth at 37° C., samples were taken every 2 hours for a total of 12 hours, and the tubes were vortexed prior to removal of a 20 μL sample. From these samples, the surviving organisms were counted utilizing disposable Neubauer hemocytometers (C-Chip® NanoEnTek Inc., Pleasanton, Calif.). At 12 hours post-treatment, each formulation was recultured in fresh DM without antiprotozoal compound and evaluated microscopically daily for the presence of T. foetus organisms in culture. These assays were performed in order to evaluate if the effects exerted by the antiprotozoal compounds could be reversed.

T. foetus trophozoites [2] = assay: Example 3: T. foetus trophozoites in tissue culture wells, 5 passages (120 hours), re-emergence of organisms; assay type: cell-based, Tritrichomonas foetus; settings: for subsequent cultures: over a 5 day period
Protocol: as §1, §2
Trophozoites (5×10^4 mL^−1) were cultured as described above and added to all tissue culture wells along with 3 mL of DM for a total volume of 4 mL of DM with 50,000 organisms per well. At time 0, each of the following treatment groups were added to tissue culture wells as follows: Group 1) positive control 4 mL DM; Group 2) negative control 4 mL 70% ethanol (EtOH); Group 3) 150 mg oxfendazole solution (OXF) (1 mL)+2 mL Velvachol (VC)+1 mL PLO; Group 4) 150 mg OXF (1 mL)+3 mL VC; Group 5) 150 mg OXF (1 mL)+3 mL EtOH; Group 6) 150 mg OXF (1 mL)+2 mL EtOH+1 mL PLO; Group 7) 1 mL EtOH+2 mL VC+1 mL PLO; Group 8) 1 mL EtOH+3 mL VC; Group 9) 3 mL EtOH+1 mL PLO; Group 10) 4 mL EtOH; Group 11) 4 mL VC; Group 12) 150 mg oxfendazole dissolved in 4 mL 99% DMSO; and Group 13) 4 mL 99% DMSO.
The OXF (U.S. Pharmacopeial Convention Rockville, Md.) stock solution was made in EtOH (Humco Texarkana, TX) and stored at 150 mg mL^−1, with the exception of Formulation 13 which included OXF dissolved in 99% DMSO (VedCo, Saint Joseph, Mo.). The combinations of PLO (Pluronic F127 Letco Medical, Decatur, Ala.), VC (Valeant North America LLC, Bridgewater, N.J.), EtOH (Humco Texarkana, TX), and OXF stock solution were mixed as described above.
Each treatment was applied to tissue culture wells in duplicate. Following culture as described in Example 2, samples were collected every 8 hours for a total of 24 hours and counted as previously described. At 24 hours post-treatment and following counting of organisms, each formulation was removed from the tissue culture well and centrifuged at 4000 g for 10 minutes. The supernatant was removed and placed in a labeled vial for evaluation of drug concentration at a later time. The pellet was re-suspended in 4 mL of DM and placed once again in a tissue culture well before being re-incubated at 37° C. This process was repeated every 24 hours for 5 passages (120 hours) to allow for re-emergence of any organisms. Assays were continued to be microscopically examined during this period for the presence of T. foetus organisms in culture by counting of live organisms.

Compound	inhibition of parasite growth (T. foetus trophozoites [1])	reduction in motile organisms (T. foetus trophozoites [1])	motile organisms after re-culture (T. foetus trophozoites [1])	death of trophozoites (T. foetus trophozoites [2])	surviving organisms / form seen, 8 hours post-incubation (T. foetus trophozoites [2])	surviving organisms / form seen, 16 hours post-incubation (T. foetus trophozoites [2])	surviving organisms / form seen, 24 hours post-incubation (T. foetus trophozoites [2])	surviving organisms / form seen, 48 hours post-incubation (T. foetus trophozoites [2])	surviving organisms / form seen, 72 hours post-incubation (T. foetus trophozoites [2])	surviving organisms / form seen, 96 hours post-incubation (T. foetus trophozoites [2])	surviving organisms / form seen, 120 hours post-incubation (T. foetus trophozoites [2])	subsequent cultures (T. foetus trophozoites [2])	death of trophozoites (T. foetus trophozoites [2]; listed as 99% DMSO)
Cc1cc(-n2c(=O)[nH]c(=O)n(C)c2=O)ccc1Oc1ccc(S(=O)(=O)C(F)(F)F)cc1 [PO, 1-Methyl-3-(3-methyl-4-(4-((trifluoromethyl)sulfonyl)phenoxy)phenyl)-1,3,5-triazinane-2,4,6-trione]	significantly inhibited parasite growth	98%	reestablishment of motile organisms was observed										
CCO [EtOH, ethanol]				capable of inducing death of trophozoites	dead trophs	dead trophs	dead trophs	dead trophs	dead trophs	no cells	no cells	negative cultures	
CCCOc1ccc2nc(NC(=O)OC)[nH]c2c1 [OX, methyl (5-propoxy-1H-benzimidazol-2-yl)carbamate]	significantly inhibited parasite growth	98%	reestablishment of motile organisms was observed										
C[S+](C)[O-] [DMSO]					dead trophs	dead trophs	dead trophs	dead trophs	dead trophs	no cells	no cells	negative cultures	capable of inducing death of trophozoites
